# Test results from patent publication US9504729B2, “Antiangiogenic small molecules and methods of use” (The United States of America, as represented by the …, priority 2009, dated 2016).
# Tested on: angiogenesis genes in dermal microvascular endothelial cells
# Assay: Real time RT-PCR of angiogenesis gene expression during endothelial tube formation
# Assay type: cell-based
# Conditions: 1 μM SM, 24 hours
# Method: For gene expression studies, three independent experiments were run for each SM tested. 90.000 cells/well (6 wells/treatment) of dermal microvascular endothelial cells (Lonza, Walkersville, Md.) were seeded on polymerized GELTREX™ gel matrix (Invitrogen, Carlsbad, Calif.) in 24 well plates. Wells were immediately treated with the same volume of 1 μM SM or PBS. After 24 hours incubation at 37° C. and 5% CO2, cells were extracted using Cell Recovery Solution (BD Biosciences, San Jose, Calif., Cat. #354253). Total RNA was extracted with the RNeasy Mini Kit (Qiagen, Valencia, Calif., Cat. #74104), and retrotranscribed using […]® First-Strand reverse transcriptase (Invitrogen, Carlsbad, Calif., Cat. #11904-018). The real time PCR reactions were performed in an Opticon 2 cycler (MJ Research, Waltham, Mass.). Amplification was performed in a final volume of 25 μl, containing 2 μl cDNA (1:10 dilution from the reversed transcribed reaction) and 2 μl of primer mixture (10 μM each of forward and reverse primers). Samples were amplified as follows: after initial denaturation at 95 C for 2 minutes, reactions were run for 46 cycles at 95° C. for 30 seconds, 60° C. for 30 seconds, and 72° C. for 45 seconds. Fluorescence was measured in every cycle and a melting curve was run after the PCR by increasing temperature from 50 to 96° C. (in 0.5° C. increments). A defined single peak was obtained for all amplicons, thus confirming the specificity of the amplification.
# The genes that were monitored were selected based on their relevance to the angiogenesis process. All experiments were done in triplicate. The results are shown in the volcano plots of FIG. 17. Log 2 fold-change is presented in the X-axis and log 10 P value in the Y-axis.
compound,measurement,value
CCC(=O)OCN1C(=O)C=CC1=O [compound 19630],Log2 fold-change of gene expression: 1839,−1.2
same,Log2 fold-change of gene expression: 4247,1.0
same,Log2 fold-change of gene expression: 5569,−3.0
same,Log2 fold-change of gene expression: 8131,0.6
same,Log2 fold-change of gene expression: 9569,−2.3
same,Log2 fold-change of gene expression: 10988,2.5
same,Log2 fold-change of gene expression: 23001,0.4
same,Log2 fold-change of gene expression: 55332,−1.1
same,Log2 fold-change of gene expression: 57722,0.2
same,Log2 fold-change of gene expression: 58488,1.2
same,Log2 fold-change of gene expression: 90780,−1.2
same,Log2 fold-change of gene expression: 134265,−1.6
same,Log2 fold-change of gene expression: AKT1,0.1
same,Log2 fold-change of gene expression: ANGPT1,−0.5
same,Log2 fold-change of gene expression: ANGPT2,−1.8
same,Log2 fold-change of gene expression: ANGPTL3,−5.0
same,Log2 fold-change of gene expression: ANGPTL4,−0.2
same,Log2 fold-change of gene expression: ANPEP,−0.4
same,Log2 fold-change of gene expression: ANTXR1,−0.3
same,Log2 fold-change of gene expression: APOE,3.3
same,Log2 fold-change of gene expression: ARHGEF1,0.2
same,Log2 fold-change of gene expression: Acvrl1,−0.6
same,Log2 fold-change of gene expression: Adcy4,0.0
same,Log2 fold-change of gene expression: BAL1,−0.9
same,Log2 fold-change of gene expression: BMP1,0.5
same,Log2 fold-change of gene expression: C1orf54,−4.8
same,Log2 fold-change of gene expression: CALD1,1.7
same,Log2 fold-change of gene expression: CCL2,2.3
same,Log2 fold-change of gene expression: CCL11,−0.3
same,Log2 fold-change of gene expression: CD248,1.3
same,Log2 fold-change of gene expression: CDH5,−0.2
same,Log2 fold-change of gene expression: CENTD3,0.6
same,Log2 fold-change of gene expression: CLIC1,−0.1
same,Log2 fold-change of gene expression: COL4A3,0.1
same,Log2 fold-change of gene expression: COL18A1,0.4
same,Log2 fold-change of gene expression: COMT,−0.7
same,Log2 fold-change of gene expression: CST4,0.8
same,Log2 fold-change of gene expression: CTTNBP2NL,−2.3
same,Log2 fold-change of gene expression: CXCL3,12.1
same,Log2 fold-change of gene expression: CXCL5,4.8
same,Log2 fold-change of gene expression: CXCL6,−0.5
same,Log2 fold-change of gene expression: CXCL9,−1.0
same,Log2 fold-change of gene expression: CXCL10,4.7
same,Log2 fold-change of gene expression: Calcr1,−4.3
same,Log2 fold-change of gene expression: Caskin2,−2.8
same,Log2 fold-change of gene expression: Ccbp2,−0.1
same,Log2 fold-change of gene expression: Cldn5,0.6
same,Log2 fold-change of gene expression: DGKG,5.4
same,Log2 fold-change of gene expression: DKK3,−1.5
same,Log2 fold-change of gene expression: DLL4,−4.5
same,Log2 fold-change of gene expression: DUT,−0.8
same,Log2 fold-change of gene expression: EFNA1,3.7
same,Log2 fold-change of gene expression: EFNA3,−0.4
same,Log2 fold-change of gene expression: EFNB2,−1.9
same,Log2 fold-change of gene expression: EGF,−1.0
same,Log2 fold-change of gene expression: ENG,0.1
same,Log2 fold-change of gene expression: EPHB4,−0.8
same,Log2 fold-change of gene expression: EREG,7.6
same,Log2 fold-change of gene expression: ESAM1,−3.3
same,Log2 fold-change of gene expression: EXTL3,1.0
same,Log2 fold-change of gene expression: Egf17,−3.8
same,Log2 fold-change of gene expression: Ehd4,−1.1
same,Log2 fold-change of gene expression: Entpd1,−4.9
same,Log2 fold-change of gene expression: Epas1,1.8
same,Log2 fold-change of gene expression: EphB1,0.0
same,Log2 fold-change of gene expression: Erg,−1.6
same,Log2 fold-change of gene expression: FGF1,−3.0
same,Log2 fold-change of gene expression: FGF2,1.7
same,Log2 fold-change of gene expression: FGFR3,−0.2
same,Log2 fold-change of gene expression: FIGF,−3.2
same,Log2 fold-change of gene expression: FLT1,−2.1
same,Log2 fold-change of gene expression: Fgd5,−1.6
same,Log2 fold-change of gene expression: GPCR124,−1.7
same,Log2 fold-change of gene expression: GRRP1,0.0
same,Log2 fold-change of gene expression: Grp116,−1.9
same,Log2 fold-change of gene expression: HAND2,−0.5
same,Log2 fold-change of gene expression: HGF,−0.3
same,Log2 fold-change of gene expression: HIF1A,−1.7
same,Log2 fold-change of gene expression: HPSE,0.6
same,Log2 fold-change of gene expression: Hspa12b,−4.6
same,Log2 fold-change of gene expression: ID1,1.0
same,Log2 fold-change of gene expression: ID3,0.4
same,Log2 fold-change of gene expression: IFNA1,0.4
same,Log2 fold-change of gene expression: IFNB1,−0.4
same,Log2 fold-change of gene expression: IFNG,4.7
same,Log2 fold-change of gene expression: IGF1,3.6
same,Log2 fold-change of gene expression: IL1B,0.2
same,Log2 fold-change of gene expression: IL6,3.5
same,Log2 fold-change of gene expression: IL8,3.0
same,Log2 fold-change of gene expression: ITGAV,−0.3
same,Log2 fold-change of gene expression: ITGB3,−0.9
same,Log2 fold-change of gene expression: Icam1,0.1
same,Log2 fold-change of gene expression: Icam2,0.4
same,Log2 fold-change of gene expression: JAG1,−1.2
same,Log2 fold-change of gene expression: KDR,−2.7
